Values of other authors in patent US20230416219A1, “R-MDMA CRYSTAL FORMS” (Mind Medicine, Inc., priority 2022, published 2023).

Experiments:
5-HT2A receptors = 5-HT2A receptors (Homo sapiens, UniProt P28223)
[1] = in vivo
[2] = system: parkinsonian animal model
SERT = SERT (Homo sapiens, UniProt P31645)
DAT = DAT (Homo sapiens, UniProt Q01959)
DAT, sequence (Q01959 whole entry, species assumed): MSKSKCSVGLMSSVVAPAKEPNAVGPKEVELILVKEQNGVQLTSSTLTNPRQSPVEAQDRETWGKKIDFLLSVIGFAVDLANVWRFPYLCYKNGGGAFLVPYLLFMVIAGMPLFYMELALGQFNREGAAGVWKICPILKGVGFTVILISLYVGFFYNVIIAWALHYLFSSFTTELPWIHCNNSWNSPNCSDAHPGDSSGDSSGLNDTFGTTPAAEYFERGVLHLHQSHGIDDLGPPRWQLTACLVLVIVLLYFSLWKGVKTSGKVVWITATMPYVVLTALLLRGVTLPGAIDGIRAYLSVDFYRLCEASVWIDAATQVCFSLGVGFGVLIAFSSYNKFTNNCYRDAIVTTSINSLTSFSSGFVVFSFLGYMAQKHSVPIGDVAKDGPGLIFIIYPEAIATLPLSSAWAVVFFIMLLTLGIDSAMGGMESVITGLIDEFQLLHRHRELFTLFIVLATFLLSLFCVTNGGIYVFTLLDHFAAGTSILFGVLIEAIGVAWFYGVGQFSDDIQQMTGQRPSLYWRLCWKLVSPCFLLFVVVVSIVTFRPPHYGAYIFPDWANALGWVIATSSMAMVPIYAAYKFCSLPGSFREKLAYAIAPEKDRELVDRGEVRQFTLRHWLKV

SERT, sequence (P31645 whole entry, species assumed): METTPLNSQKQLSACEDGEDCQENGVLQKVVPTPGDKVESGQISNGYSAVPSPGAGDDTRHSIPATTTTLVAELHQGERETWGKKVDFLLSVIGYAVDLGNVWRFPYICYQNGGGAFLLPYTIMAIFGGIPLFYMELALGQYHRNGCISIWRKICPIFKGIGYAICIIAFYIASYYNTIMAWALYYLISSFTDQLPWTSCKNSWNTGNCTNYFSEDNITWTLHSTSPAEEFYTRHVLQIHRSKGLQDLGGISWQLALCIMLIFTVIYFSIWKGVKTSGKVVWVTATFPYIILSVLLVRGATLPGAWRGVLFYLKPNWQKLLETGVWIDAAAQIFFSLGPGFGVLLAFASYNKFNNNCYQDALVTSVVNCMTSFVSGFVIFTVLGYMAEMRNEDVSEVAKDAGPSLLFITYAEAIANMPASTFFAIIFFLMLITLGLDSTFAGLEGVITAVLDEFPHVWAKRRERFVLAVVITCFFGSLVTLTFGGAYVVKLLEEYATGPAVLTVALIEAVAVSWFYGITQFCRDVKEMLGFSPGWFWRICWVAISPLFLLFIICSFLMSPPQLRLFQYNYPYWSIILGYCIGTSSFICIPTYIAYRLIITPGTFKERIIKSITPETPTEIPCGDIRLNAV
5-HT2A receptors, sequence (P28223 whole entry): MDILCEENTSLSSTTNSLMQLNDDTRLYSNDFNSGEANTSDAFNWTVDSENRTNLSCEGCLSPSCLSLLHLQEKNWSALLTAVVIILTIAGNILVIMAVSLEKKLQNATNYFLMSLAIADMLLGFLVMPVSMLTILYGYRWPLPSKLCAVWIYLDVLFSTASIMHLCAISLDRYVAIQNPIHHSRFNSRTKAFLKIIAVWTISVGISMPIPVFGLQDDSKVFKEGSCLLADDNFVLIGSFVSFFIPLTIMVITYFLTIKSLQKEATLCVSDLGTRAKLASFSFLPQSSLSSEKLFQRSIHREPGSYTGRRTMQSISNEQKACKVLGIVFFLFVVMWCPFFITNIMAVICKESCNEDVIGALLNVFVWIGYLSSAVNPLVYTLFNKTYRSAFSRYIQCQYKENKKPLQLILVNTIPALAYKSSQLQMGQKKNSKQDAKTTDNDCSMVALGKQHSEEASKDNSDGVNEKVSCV

Compound	selectivity for 5-HT2A receptors (5-HT2A receptors)	hyperthermia [1]	duration of good ON-time [2]	severity of peak-dose dyskinesia [2]	affinity for SERT (SERT)	affinity for DAT (DAT)	total duration of ON-time [2]
CN[C@H](C)Cc1ccc2c(c1)OCO2 [R-MDMA]	selective compound for 5-HT2A receptors	does not produce hyperthermia	increased	decreased			
CN[C@@H](C)Cc1ccc2c(c1)OCO2 [S-MDMA]				exacerbated	high affinity	moderate affinity	extended
